Series [1] can be described thus: Animal biodistribution studies of 99mTc complexes in rats. Type of series: in vivo, Male Sprague Dawley rats. Set-up: Heart / Blood / Muscle / Lung / Liver / Kidney / Bladder & Urine / Brain: unit not given here. The conditions noted are these: i.v. tail vein. The procedure: Complex Preparation: 20-25 μl of hydrazine was added to 2 cm^3 of absolute ethanol, then ^99mTcO4^−(0.2-3.0 GBq) and 10 mg of ligand were added to the solution. This mixture was heated to 120° C. for 30-60 minutes, cooled to room temperature and analyzed. For biodistribution studies the total volume of he preparation was made up to 5 cm^3 by the addition of sterile saline solution.
Animal Biodistribution Studies: Six Male Sprague Dawley rats were infected while under light ether anaesthesia with 0.1 cm^3 of preparation (i.v., tail vein) and half were sacrificed by cervical dislocation while under ether anaesthesia at the appropriate time interval post-infection and dissected. Organs were weighed and their activities measured in an ionisation chamber. For the purposes of calculations blood was assumed to constitute 5.8% of the total body weight, muscle was assumed to be 43% and the lungs were assumed to weigh 1 g.

The nature of series [2]: Stability to air and moisture (observation). The format is physicochemical. Particulars: 99Tc complex, isolated solid.
Series [3] is described as follows: Solubility in solvents (observation). Type of series: physicochemical. Particulars: 99Tc complex, organic solvents.

Consider `CP(C)COCP(C)C` (99mTc complex, metal not drawn) [PL28], for which, in series [1] (Time P. I. 2), the “Bladder & Urine” value is 0.11, the Blood is reported as 4.18, the Brain is 0.04 and the Heart was determined as 1.12. In series [1] (Time P. I. 2), this compound registered a Kidney of 9.41, a Liver of 17.8, a Lung of 1.18 and a Muscle of 30.2. In series [1] (Time P. I. 60), the “Bladder & Urine” value was 10.9, the Blood was found to be 0.46, the Brain was found to be 0.02 and the Heart is reported as 0.65. Further, in series [1] (Time P. I. 60), the Kidney turned out to be 5.90, the Liver is 5.95, the Lung stood at 0.62 and the Muscle was 27.4. In addition, the “S. I.” value in series [1] (Time P. I. 60) was found to be 39.6.

Regarding `CCOCC(COCC)(CP(C)C)CP(C)C` (99mTc complex, metal not drawn) [PL42], in series [1] (Time P. I. 2), the “Bladder & Urine” value is 0.06, the Blood stood at 28.6, the H/Bl is on record as 0.59 and the H/Li is 0.73. Further, in series [1] (Time P. I. 2), the Heart amounted to 1.22, the Kidney was 5.35, the Liver turned out to be 22.8 and the Lung is 2.56. Moreover, in series [1] (Time P. I. 2), the Muscle is listed as 18.1 and the “S. I.” value is reported as 7.66. Besides, in series [1] (Time P. I. 60), the “Bladder & Urine” value was found to be 2.61, the Blood was 8.99, the H/Bl was determined as 2.13 and the H/Li stood at 1.12. In series [1] (Time P. I. 60), this compound returned a Heart of 1.19, a Kidney of 3.52, a Liver of 14.7 and a Lung of 1.57. In series [1] (Time P. I. 60), the Muscle stood at 21.3 and the “S. I.” value worked out at 31.8.

Take `COCCC(CCOC)(CP(C)C)CP(C)C` (99mTc complex, metal not drawn) [PL50]: in series [1] (Time P. I. 2), the “Bladder & Urine” value worked out at 0.09, the Blood was found to be 4.38, the H/Bl worked out at 2.68 and the H/Li was 0.31. In series [1] (Time P. I. 2), the Heart is listed as 0.83, the Kidney was 12.0, the Liver worked out at 34.8 and the Lung worked out at 1.02. Besides, in series [1] (Time P. I. 2), the Muscle was determined as 18.7 and the “S. I.” value was 12.8. Besides, in series [1] (Time P. I. 60), the “Bladder & Urine” value was 6.76, the Blood was 0.42, the H/Bl is listed as 22.2 and the H/Li was 1.27. Also, in series [1] (Time P. I. 60), the Heart is 0.65, the Kidney was 6.81, the Liver was 4.35 and the Lung is 0.43. In series [1] (Time P. I. 60), the Muscle was found to be 14.9 and the “S. I.” value was 57.9.

As to `CCCC[N+](CCCC)(CCCC)CCCC.Cc1ccc([N]=[Tc-]([Cl])([Cl])([Cl])[Cl])cc1` [Complex 1, Tetrabutylammonium(1+)tetrachloro(p-tolylimido) technetate (V) (1−)], in series [2], the “stability to air / moisture” value is given as “quite sensitive to adventitious moisture”.

Take `CCCC[N+](CCCC)(CCCC)CCCC.Cc1ccc([N]=[Tc-]([Br])([Br])([Br])[Br])cc1` [Complex 2, Tetrabutylammonium(1+)tetrabromo(p-tolylimido) technetate (V) (1−)]: the “stability to air / moisture” value in series [2] is “quite sensitive to adventitious moisture”.

Turning to `Clc1ccc(N=[N][Tc]([Cl])([N]=Nc2ccc(Cl)cc2)([PH](c2ccccc2)(c2ccccc2)c2ccccc2)[PH](c2ccccc2)(c2ccccc2)c2ccccc2)cc1` [Complex 9, [TcCl(NNC6H4Cl)2(PPh3)2]], in series [2], the “stability to air / moisture” value is recorded as “air-stable”. The solubility result in series [3] was “reasonably soluble”.

In the case of `O=C1[O][Tc]([Cl])([Cl])([P+](c2ccccc2)(c2ccccc2)c2ccccc2)([P+](c2ccccc2)(c2ccccc2)c2ccccc2)=[N]c2ccccc21` [Complex 18, [TcCl2(NC6H4CO2)(PPh3)2]], the solubility result in series [3] is “soluble in DMF and CH2Cl2”.

For the compound `[N]#[Tc]([Cl])([Cl])([P](c1ccccc1)(c1ccccc1)c1ccccc1)[P](c1ccccc1)(c1ccccc1)c1ccccc1` [Example 7, TcNCl2(Ph3)2], the “stability to air / moisture” value in series [2] is “air-stable”. In series [3], the solubility entry was “quite soluble in CH2Cl2 and insoluble in ether, petrol and alcohols”.

As to `CN([N]=[Tc]([Cl])([Cl])([Cl])([P](c1ccccc1)(c1ccccc1)c1ccccc1)[P](c1ccccc1)(c1ccccc1)c1ccccc1)c1ccccc1` [Example 10, TcNNPhMe(PPh3)2Cl3], the “stability to air / moisture” value in series [2] is “air-stable”. Further, in series [3], the solubility result is listed as “reasonably soluble”.

As to `COCCOCC(COCCOC)(CP(C)C)CP(C)C` [PL43], in series [1] (Time P. I. 2), the “Bladder & Urine” value is recorded as 0.16, the Blood is on record as 21.5, the H/Bl was found to be 0.41 and the H/Li amounted to 0.38. In series [1] (Time P. I. 2), this compound returned a Heart of 0.55, a Kidney of 9.19, a Liver of 21.4 and a Lung of 1.47. In addition, in series [1] (Time P. I. 2), the Muscle stood at 21.7 and the “S. I.” value amounted to 8.6. In series [1] (Time P. I. 60), the “Bladder & Urine” value was 25.4, the Blood is 1.14, the H/Bl is listed as 3.83 and the H/Li is recorded as 0.40. Moreover, in series [1] (Time P. I. 60), the Heart was 0.26, the Kidney was found to be 2.32, the Liver was determined as 9.08 and the Lung was found to be 0.22. Also, in series [1] (Time P. I. 60), the Muscle worked out at 10.9 and the “S. I.” value was 45.6.

Take `[Cl][Tc]([N]=Nc1ccccc1)([N]=Nc1ccccc1)([PH](c1ccccc1)(c1ccccc1)c1ccccc1)[PH](c1ccccc1)(c1ccccc1)c1ccccc1` [[TcCl(NNPh)2(PPh3)2], [Tc(NNPh)2Cl(PPh3)2]]: the solubility result in series [3] is “somewhat insoluble”; in series [3] (listed as Tc(NNPh)2Cl(PPh3)2), “only partially soluble in halogenated solvents and insoluble in alcohols”.

With [TC(NNC6H4Cl)2(N2S2)]x [Complex 17], in series [3], the solubility entry is given as “too insoluble for satisfactory analysis by NMR”.

For the compound “[Tc(NC6H4Z)Cl(dppe)2] (BPh4) Z═CH3 [Complex 6]”, the “stability to air / moisture” value in series [2] is given as “air-stable”. Also, in series [3], the solubility entry is “quite soluble in CH2Cl2 and insoluble in ether, petrol and alcohols”.

In the case of [TcN(dppe)2Cl][PF6] [Example 8], the “stability to air / moisture” value in series [2] is reported as “air-stable”. Further, in series [3], the solubility result is “quite soluble in CH2Cl2 and insoluble in ether, petrol and alcohols”.

Consider [Tc^III(NNC6H4NO2) (Cl(dmpe)2]^+, for which, in series [1] (Time P. I. 2), the “Bladder & Urine” value is on record as 0.08, the Blood came to 5.68, the Brain is 0.12 and the H/Bl is 3.00. In series [1] (Time P. I. 2), this compound had a H/Li of 0.72, a Heart of 1.15, a Kidney of 9.47 and a Liver of 22.4. In series [1] (Time P. I. 2), the Lung came out at 2.27, the Muscle came to 26.2 and the “S. I.” value is on record as 13.0. In series [1] (Time P. I. 60), the “Bladder & Urine” value is given as 7.28, the Blood came out at 0.92, the Brain worked out at 0.06 and the H/Bl was determined as 11.0. For the same compound, in series [1] (Time P. I. 60), the H/Li was found to be 0.76, the Heart was 0.67, the Kidney is given as 9.47 and the Liver was found to be 12.3. Further, in series [1] (Time P. I. 60), the Lung is 1.04, the Muscle is 16.8 and the “S. I.” value came out at 33.8.

Values taken from patent US6515112B2, “Cores for technetium radiopharmaceuticals” (Amersham PLC, priority 1989, dated 2003).
